The structures appear in SMILES notation.

One data set concerns the target PSMA (Homo sapiens, UniProt Q04609). In words: Measurement of binding capacity: competition with [^125I]30 on 22RV1 cells. The arrangement: host or cells: 22RV1 human prostate cancer cells. The note with it: 22RV1 cells, [^125I]30 0.1 nM, 37° C., 2 hours. Here is the method:
To confirm the binding capacity of the compounds of the present invention to PSMA, the following experiment was performed.
RPMI1640 supplemented with 1% BSA (bovine serum albumin) was used as a buffer solution.
[^125I]30 (0.1 nM) obtained in Comparative Example 1 was added to a vessel containing 22RV1 cells (5×10^4), to which the compound represented by formula 1 was loaded at 9 concentrations (1.00×10^−4˜1.00×10^−12 M), followed by stirring at 37° C. for 2 hours. Upon completion of the stirring, the vessel was washed with PBS solution (2 mL) three times, and then the radioactivity was measured using a gamma counter (2480 WIZARD2 Gamma Counter PerkinElmer Co., MA). The 50% inhibition concentration (IC50) for each compound was calculated using a GraphPad Prism program (GraphPad Software, Inc., CA)
(Maresca, K. P. et al., 2009, J. Med. Chem. 52, 347-357)

Another data set deals with PSMA^+ PC-3 PIP tumors. The data set can be described thus: MicroPET/CT imaging of mice transplanted with prostate cancer cell lines. It is filed as in vivo, nude mouse. The protocol: A tumor model was prepared by subcutaneously injecting PSMA^+ PC-3 PIP cells (a human prostate cancer cell line) to the right side of the nude mouse hind leg. Each of the ^68Ga-labeled compounds [^68Ga]1e, [^68Ga]1g, [^68Ga]1h and [^68Ga]1k was intravenously injected with 5.5 to 6.5 MBq (148-175 μCi/200 μL), and PET/CT images were obtained using small animal INVEON PET/CT (Siemens medical solutions, Knoxville, USA) for 60 minutes. After 150 minutes, 270 minutes, and 390 minutes, PET/CT images were also obtained for 30 minutes. The obtained PET/CT image results were quantitatively analyzed using Inveon™ Research Workplace (IRW).
FIGS. 1, 2, 3, and 4 are graphs showing the quantitative analysis results of MicorPET/CT images for [^68Ga]1e, [^68Ga]1g, [^68Ga]1h, and [^68Ga]1k in % injected dose (ID)/g, and summarized in Tables 3, 4, 5, and 6, respectively.

The nature of data set [1]: Measurement of lipophilicity (log P), n-octanol/PBS. The settings on record: mean of 3. The format is physicochemical. The protocol: Each of the [^68Ga]1 compounds (1˜2 mci) synthesized in Example 14 was transferred into a vial, and the solvent was removed, to which 1 mL of n-octanol and 1 mL of PBS were added, and the lid was well closed, followed by mixing with a vortex for 1 minute. After the layers were separated, 0.1 mL was taken from each layer and the radiation dose was measured. The radiation dose was measured by repeating 3 times, and the mean value was obtained.

Chain of PSMA (Q04609 whole entry): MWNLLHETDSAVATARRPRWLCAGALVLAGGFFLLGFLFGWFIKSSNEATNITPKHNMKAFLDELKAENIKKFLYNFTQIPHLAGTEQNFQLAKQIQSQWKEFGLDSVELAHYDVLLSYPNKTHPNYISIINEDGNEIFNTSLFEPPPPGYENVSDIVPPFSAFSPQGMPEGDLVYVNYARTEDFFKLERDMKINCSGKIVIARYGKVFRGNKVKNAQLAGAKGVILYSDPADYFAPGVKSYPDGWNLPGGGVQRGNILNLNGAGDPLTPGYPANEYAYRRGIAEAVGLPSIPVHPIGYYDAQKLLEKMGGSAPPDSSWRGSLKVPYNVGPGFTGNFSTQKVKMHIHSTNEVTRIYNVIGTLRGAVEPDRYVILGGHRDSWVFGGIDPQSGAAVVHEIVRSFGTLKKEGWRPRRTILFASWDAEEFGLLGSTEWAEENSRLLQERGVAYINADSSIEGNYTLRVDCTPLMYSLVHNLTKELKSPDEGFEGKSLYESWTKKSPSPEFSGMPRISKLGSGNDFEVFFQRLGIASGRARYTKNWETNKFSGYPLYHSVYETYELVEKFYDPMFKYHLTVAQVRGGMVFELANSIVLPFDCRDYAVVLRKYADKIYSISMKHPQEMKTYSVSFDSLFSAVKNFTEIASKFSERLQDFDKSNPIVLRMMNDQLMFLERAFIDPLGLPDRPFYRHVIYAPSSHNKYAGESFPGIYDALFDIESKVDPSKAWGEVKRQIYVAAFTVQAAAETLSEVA

The IC50 is the concentration needed to halve the response being measured. A word on the Ki: it is a dissociation constant, usually derived from enzyme kinetics or from competition with a known ligand. Turning to `O=C(O)CCC(NC(=O)NC(CCC(=O)N(CC(=O)O)Cc1cn(CCOCCNC(=O)CN2CCN3CCN4CCN(CC2)CC(=O)[O][Ga]([O]C(=O)C3)[O]C(=O)C4)nn1)C(=O)O)C(=O)O` (stereo not shown) [Ga-1p], the half-inhibitory concentration (IC50) at PSMA (read-out: IC50) was found to be 703 ± 145 nM. Further, the Ki on PSMA (read-out: Ki value) is 130 ± 26.6 nM.

The logP is the decadic logarithm of the partition coefficient of the neutral form, usually between octanol and water. Read a high logP as higher lipophilicity. As to `O=C(O)CCC(NC(=O)NC(CCCCN(CC(=O)O)C(=O)COCCOCCNC(=O)C(CCCCNC(=O)CCCc1ccc(I)cc1)NC(=O)CN1CCN2CCN3CCN(CC1)CC(=O)[O][68Ga]([O]C(=O)C2)[O]C(=O)C3)C(=O)O)C(=O)O` (stereo not shown) [[^68Ga]1h], the “intake of mouse organ: Bladder” value is listed as 2.12 ± 0.39 % ID/g with PSMA^+ PC-3 PIP tumors (10 min after injection); 2.91 ± 0.69 % ID/g in the data set on PSMA^+ PC-3 PIP tumors (20 min after injection); 3.14 ± 0.51 % ID/g in the data set on PSMA^+ PC-3 PIP tumors (30 min after injection); 4.52 ± 0.97 % ID/g with PSMA^+ PC-3 PIP tumors (40 min after injection); 8.26 ± 4.41 % ID/g with PSMA^+ PC-3 PIP tumors (50 min after injection); 12.62 ± 5.31 % ID/g in the data set with PSMA^+ PC-3 PIP tumors (60 min after injection). Also, the figures for the “intake of mouse organ: Bladder” value in the data set on PSMA^+ PC-3 PIP tumors (150 min after injection), in the data set on PSMA^+ PC-3 PIP tumors (270 min after injection) and with PSMA^+ PC-3 PIP tumors (390 min after injection) were 19.45 ± 12.23 % ID/g, 15.90 ± 4.53 % ID/g and 22.80 ± 9.90 % ID/g, respectively. Further, the “intake of mouse organ: Heart” value stood at 24.69 ± 0.20 % ID/g with PSMA^+ PC-3 PIP tumors (10 min after injection); 21.30 ± 0.11 % ID/g with PSMA^+ PC-3 PIP tumors (20 min after injection); 17.38 ± 0.04 % ID/g in the data set with PSMA^+ PC-3 PIP tumors (30 min after injection); 15.25 ± 0.15 % ID/g in the data set with PSMA^+ PC-3 PIP tumors (40 min after injection); 13.52 ± 0.55 % ID/g in the data set on PSMA^+ PC-3 PIP tumors (50 min after injection); 12.14 ± 0.91 % ID/g with PSMA^+ PC-3 PIP tumors (60 min after injection). The “intake of mouse organ: Heart” value with PSMA^+ PC-3 PIP tumors (150 min after injection) was found to be 5.55 ± 2.19 % ID/g; in the data set on PSMA^+ PC-3 PIP tumors (270 min after injection) it was 5.75 ± 0.21 % ID/g; in the data set with PSMA^+ PC-3 PIP tumors (390 min after injection) it was 3.90 ± 0.42 % ID/g. Further, the “intake of mouse organ: Kidney” value in the data set on PSMA^+ PC-3 PIP tumors (10 min after injection) was 13.26 ± 2.36 % ID/g; in the data set with PSMA^+ PC-3 PIP tumors (20 min after injection), 12.56 ± 0.86 % ID/g; in the data set with PSMA^+ PC-3 PIP tumors (30 min after injection) it was 12.61 ± 0.71 % ID/g; with PSMA^+ PC-3 PIP tumors (40 min after injection), 13.51 ± 0.46 % ID/g; in the data set on PSMA^+ PC-3 PIP tumors (50 min after injection), 13.44 ± 0.71 % ID/g; in the data set on PSMA^+ PC-3 PIP tumors (60 min after injection) it was 13.60 ± 1.72 % ID/g. Further, the “intake of mouse organ: Kidney” value turned out to be 6.40 ± 1.41 % ID/g with PSMA^+ PC-3 PIP tumors (150 min after injection), 7.45 ± 1.63 % ID/g with PSMA^+ PC-3 PIP tumors (270 min after injection) and 5.85 ± 0.92 % ID/g in the data set on PSMA^+ PC-3 PIP tumors (390 min after injection). Moreover, the “intake of mouse organ: Liver” value is on record as 14.96 ± 0.03 % ID/g in the data set on PSMA^+ PC-3 PIP tumors (10 min after injection); 12.71 ± 0.03 % ID/g with PSMA^+ PC-3 PIP tumors (20 min after injection); 10.37 ± 0.12 % ID/g in the data set with PSMA^+ PC-3 PIP tumors (30 min after injection); 8.86 ± 0.35 % ID/g in the data set with PSMA^+ PC-3 PIP tumors (40 min after injection); 7.83 ± 0.45 % ID/g in the data set on PSMA^+ PC-3 PIP tumors (50 min after injection); 7.19 ± 0.49 % ID/g in the data set with PSMA^+ PC-3 PIP tumors (60 min after injection). Besides, the “intake of mouse organ: Liver” value with PSMA^+ PC-3 PIP tumors (150 min after injection) was 2.80 ± 0.99 % ID/g; in the data set with PSMA^+ PC-3 PIP tumors (270 min after injection), 3.00 ± 0.28 % ID/g; in the data set on PSMA^+ PC-3 PIP tumors (390 min after injection) it was 2.35 ± 0.07 % ID/g. Also, the “intake of mouse organ: Muscle” value is reported as 2.24 ± 0.15 % ID/g in the data set with PSMA^+ PC-3 PIP tumors (10 min after injection); 2.97 ± 0.35 % ID/g in the data set on PSMA^+ PC-3 PIP tumors (20 min after injection); 2.98 ± 0.34 % ID/g in the data set on PSMA^+ PC-3 PIP tumors (30 min after injection); 3.28 ± 0.23 % ID/g in the data set with PSMA^+ PC-3 PIP tumors (40 min after injection); 3.25 ± 0.36 % ID/g in the data set on PSMA^+ PC-3 PIP tumors (50 min after injection); 3.14 ± 0.20 % ID/g in the data set on PSMA^+ PC-3 PIP tumors (60 min after injection). Moreover, the results for the “intake of mouse organ: Muscle” value with PSMA^+ PC-3 PIP tumors (150 min after injection), in the data set on PSMA^+ PC-3 PIP tumors (270 min after injection) and with PSMA^+ PC-3 PIP tumors (390 min after injection) were 1.70 ± 0.57 % ID/g, 1.70 ± 0.14 % ID/g and 1.30 ± 0.14 % ID/g, respectively. The “intake of mouse organ: Tumor (PIP)” value is given as 1.94 ± 0.35 % ID/g in the data set on PSMA^+ PC-3 PIP tumors (10 min after injection); 3.74 ± 0.97 % ID/g in the data set on PSMA^+ PC-3 PIP tumors (20 min after injection); 5.00 ± 1.41 % ID/g in the data set on PSMA^+ PC-3 PIP tumors (30 min after injection); 6.22 ± 1.75 % ID/g in the data set on PSMA^+ PC-3 PIP tumors (40 min after injection); 7.12 ± 2.07 % ID/g with PSMA^+ PC-3 PIP tumors (50 min after injection); 7.90 ± 2.46 % ID/g with PSMA^+ PC-3 PIP tumors (60 min after injection). Besides, the entries for the “intake of mouse organ: Tumor (PIP)” value in the data set with PSMA^+ PC-3 PIP tumors (150 min after injection), in the data set with PSMA^+ PC-3 PIP tumors (270 min after injection) and in the data set with PSMA^+ PC-3 PIP tumors (390 min after injection) were 9.90 ± 4.53 % ID/g, 14.20 ± 0.00 % ID/g and 16.75±0.92 % ID/g, respectively. The “excretion, in words” value in the data set on PSMA^+ PC-3 PIP tumors (MicroPET/CT) is listed as “rapidly excreted out of the body”. Besides, the “residence time in the blood, in words” value in the data set with PSMA^+ PC-3 PIP tumors (MicroPET/CT) was “residence time in the blood was increased”. In the data set on PSMA^+ PC-3 PIP tumors (MicroPET/CT), the “tumor intake over time, in words” value is reported as “tumor intake continued to increase after 390 minutes”. This compound yielded a lipophilicity (logP) in data set [1] of −1.89.

For the compound `O=C(O)CC[C@H](NC(=O)N[C@@H](CCC(=O)N(CCOCCOCCNC(=O)CN1CCN2CCN3CCN(CC1)CC(=O)[O][68Ga]([O]C(=O)C2)[O]C(=O)C3)CC(=O)O)C(=O)O)C(=O)O` [[^68Ga]1n], the lipophilicity (logP) in data set [1] was −3.06.

Source of the values: patent US11931431B2, “PSMA-targeted radiopharmaceutical for diagnosing and treating prostate cancer” (FUTURECHEM CO., LTD, priority 2018, dated 2024).
